Data taken from the supplement of paper PMC10307832.

Tests used:
Assay in all cases: relative viability (nuclei count vs DMSO), 5 days (fraction); higher = more cells survive
Elesclomol + Luminespib = compound: CN(NC(=O)CC(=O)NN(C)C(=S)c1ccccc1)C(=S)c1ccccc1 [Elesclomol] + CCNC(=O)c1noc(-c2cc(C(C)C)c(O)cc2O)c1-c1ccc(CN2CCOCC2)cc1 [Luminespib] (partner 0.01 µM)
Method in brief: (§1)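 Lung cancer cell lines in 1536-well plates got either a single drug or a fixed anchor-drug dose together with five library-drug doses (not always all listed) in √10 steps, by pin tool, on the day after seeding. Nuclei were counted after 5 days, and relative viability is the treated-to-vehicle ratio of nuclei counts. Values are medians of duplicate plates.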

Elesclomol + Pictilisib = compound: CN(NC(=O)CC(=O)NN(C)C(=S)c1ccccc1)C(=S)c1ccccc1 [Elesclomol] + CS(=O)(=O)N1CCN(Cc2cc3nc(-c4cccc5[nH]ncc45)nc(N4CCOCC4)c3s2)CC1 [Pictilisib] (partner 1 µM)
Method in brief: as §1

Elesclomol + Crizotinib = compound: CN(NC(=O)CC(=O)NN(C)C(=S)c1ccccc1)C(=S)c1ccccc1 [Elesclomol] + C[C@@H](Oc1cc(-c2cnn(C3CCNCC3)c2)cnc1N)c1c(Cl)ccc(F)c1Cl [Crizotinib] (partner 1 µM)
Method in brief: as §1

Elesclomol + Linsitinib = compound: CN(NC(=O)CC(=O)NN(C)C(=S)c1ccccc1)C(=S)c1ccccc1 [Elesclomol] + C[C@]1(O)C[C@@H](c2nc(-c3ccc4ccc(-c5ccccc5)nc4c3)c3c(N)nccn32)C1 [Linsitinib] (partner 1 µM)
Method in brief: as §1

Elesclomol + Phenformin = compound: CN(NC(=O)CC(=O)NN(C)C(=S)c1ccccc1)C(=S)c1ccccc1 [Elesclomol] + N=C(N)NC(=N)NCCc1ccccc1 [Phenformin] (partner 250 µM)
Method in brief: as §1

Row | Cell Line | relative viability (Elesclomol + Luminespib; first compound 0.003162 µM) | relative viability (Elesclomol + Luminespib; first compound 0.01 µM) | relative viability (Elesclomol + Luminespib; first compound 0.03162 µM) | relative viability (Elesclomol + Luminespib; first compound 0.1 µM) | relative viability (Elesclomol + Pictilisib; first compound 0.003162 µM) | relative viability (Elesclomol + Pictilisib; first compound 0.01 µM) | relative viability (Elesclomol + Pictilisib; first compound 0.03162 µM) | relative viability (Elesclomol + Pictilisib; first compound 0.1 µM) | relative viability (Elesclomol + Crizotinib; first compound 0.003162 µM) | relative viability (Elesclomol + Crizotinib; first compound 0.01 µM) | relative viability (Elesclomol + Crizotinib; first compound 0.03162 µM) | relative viability (Elesclomol + Crizotinib; first compound 0.1 µM) | relative viability (Elesclomol + Linsitinib; first compound 0.003162 µM) | relative viability (Elesclomol + Linsitinib; first compound 0.01 µM) | relative viability (Elesclomol + Linsitinib; first compound 0.03162 µM) | relative viability (Elesclomol + Linsitinib; first compound 0.1 µM) | relative viability (Elesclomol + Phenformin; first compound 0.003162 µM) | relative viability (Elesclomol + Phenformin; first compound 0.01 µM) | relative viability (Elesclomol + Phenformin; first compound 0.03162 µM) | relative viability (Elesclomol + Phenformin; first compound 0.1 µM)
1 | NCI-H1755 | 0.418 | 0.257 | 0.452 | 0.284 | 0.481 | 0.225 | 0.409 | 0.202 | 0.849 | 0.827 | 0.692 | 0.222 | 1.01 | 1.04 | 0.967 | 0.223 | 0.624 | 0.466 | 0.605 | 0.57
2 | NCI-H2087 | 0.158 | 0.189 | 0.139 | 0.0928 | 0.879 | 0.559 | 0.491 | 0.495 | 0.814 | 0.531 | 0.495 | 0.457 | 1.01 | 0.607 | 0.587 | 0.696 | 0.376 | 0.343 | 0.284 | 0.181
3 | NCI-H2023 | 0.658 | 0.376 | 0.134 | 0.0435 | 0.219 | 0.148 | 0.0682 | 0.0514 | 0.44 | 0.248 | 0.0779 | 0.0736 | 0.697 | 0.319 | 0.209 | 0.0484 | 0.349 | 0.217 | 0.145 | 0.0642
4 | CAL-12T | 0.328 | 0.115 | 0.0856 | 0.0463 | 0.521 | 0.146 | 0.0826 | 0.0934 | 0.5 | 0.0867 | 0.0556 | 0.0701 | 0.942 | 0.321 | 0.0785 | 0.0465 | 0.456 | 0.159 | 0.153 | 0.0571
5 | NCI-H2085 | 0.421 | 0.393 | 0.321 | 0.248 | 0.419 | 0.444 | 0.433 | 0.322 | 0.881 | 0.495 | 0.339 | 0.226 | 0.786 | 0.596 | 0.432 | 0.247 | 0.676 | 0.588 | 0.512 | 0.305
6 | NCI-H650 | 0.791 | 0.401 | 0.196 | 0.18 | 0.875 | 0.361 | 0.276 | 0.256 | 0.666 | 0.264 | 0.254 | 0.256 | 1.04 | 0.308 | 0.304 | 0.291 | 0.468 | 0.345 | 0.315 | 0.361
7 | LCLC-97TM1 | 0.791 | 0.877 | 0.781 | 0.247 | 0.173 | 0.118 | 0.115 | 0.0666 | 0.283 | 0.253 | 0.319 | 0.0642 | 0.175 | 0.16 | 0.141 | 0.116 | 0.369 | 0.168 | 0.422 | 0.387
8 | NCI-H2126 | 0.883 | 0.801 | 0.338 | 0.325 | 0.501 | 0.462 | 0.494 | 0.495 | 1.02 | 1.05 | 1.03 | 1.02 | 0.665 | 0.699 | 0.731 | 0.65 | 0.562 | 0.526 | 0.538 | 0.46
9 | 201T | 1.01 | 1.02 | 0.978 | 0.562 | 0.672 | 0.652 | 0.665 | 0.674 | 1.01 | 0.976 | 0.978 | 0.99 | 1.08 | 1.01 | 1 | 1.01 | 0.464 | 0.428 | 0.435 | 0.385
10 | NCI-H1915 | 0.771 | – | 0.768 | 0.331 | 0.924 | – | 0.916 | 0.821 | 0.888 | – | 0.895 | 0.759 | 1.09 | – | 1.05 | 0.971 | 0.37 | – | 0.38 | 0.371
11 | BEN | 0.333 | 0.232 | 0.158 | 0.237 | 0.549 | 0.292 | 0.3 | 0.188 | 0.803 | 0.397 | 0.304 | 0.214 | 0.763 | 0.403 | 0.322 | 0.239 | 0.264 | 0.233 | 0.259 | 0.246
12 | NCI-H2347 | 0.318 | 0.557 | 0.282 | 0.25 | 0.543 | 0.689 | 0.629 | 0.396 | 0.626 | 0.503 | 0.416 | 0.433 | 0.967 | 0.88 | 0.992 | 0.629 | 0.426 | 0.231 | 0.294 | 0.281
13 | H3255 | 0.883 | 0.875 | 0.547 | 0.395 | 0.433 | 0.336 | 0.315 | 0.266 | 0.967 | 0.459 | 0.377 | 0.409 | 1.01 | 0.702 | 0.428 | 0.432 | 0.312 | 0.338 | 0.366 | 0.313
14 | NCI-H441 | 0.312 | 0.446 | 0.29 | 0.111 | 0.424 | 0.364 | 0.183 | 0.0824 | 0.836 | 0.461 | 0.286 | 0.113 | 0.386 | 0.511 | 0.276 | 0.0877 | 0.788 | 0.838 | 0.604 | 0.45
15 | NCI-H2228 | 0.163 | 0.152 | 0.123 | 0.0703 | 0.395 | 0.352 | 0.132 | 0.0486 | 0.381 | 0.312 | 0.143 | 0.0592 | 0.694 | 0.541 | 0.365 | 0.0338 | 0.294 | 0.188 | 0.159 | 0.0554
16 | NCI-H1975 | 0.126 | 0.133 | 0.133 | 0.115 | 0.306 | 0.179 | 0.2 | 0.123 | 0.934 | 0.835 | 0.407 | 0.132 | 0.942 | 0.764 | 0.225 | 0.126 | 0.43 | 0.329 | 0.388 | 0.281
